Test results published in PubChem BioAssay AID179 (DTP/NCI, 2004).
Several values for one entry are separate records, joined by “and”; a condition that tells them apart may be missing. Equal values may be shown once. Activity calls are given as the source filed them.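 The calls were made as follows: active = compounds giving half or more protection of infected cells from virus-caused growth loss, again on retest; inactive = the rest.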

System: CEM cells HIV-1 protection, formazan growth assay
Test: NCI AIDS Antiviral Assay
Conditions: for IC50: measured here: growth of uninfected CEM cells
Outline: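 Steps: treat uninfected and HIV-1-infected human CEM cells at five drug levels; quantify growth by soluble formazan; retest any compound reaching 50% protection; classify actives from the retest.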

Structure (SMILES)	EC50	IC50	outcome
NC(=O)c1ncn(C2CCC(CP(=O)(O)O)C2)c1N (centres undefined)	> 200 µM	> 200 µM	
COC1CC(O)C2OC(c3ccccc3)OCC2O1 (centres undefined)			inactive
COC(=O)C(Cc1cccc(OC)c1)NC(=O)OC(C)(C)C (centres undefined)			inactive
COc1cc(C2c3cc4c(cc3OC(NNC(N)=O)C2C)OCO4)cc(OC)c1O (centres undefined)	> 200 µM	0.525 µM	
CN=C(Nc1ccc(OC)c2ccccc12)SC	> 200 µM	> 100 µM	
CC(C)(O)[C@@H]1CC[C@](C)(C2[C@@H](O)C[C@@]3(C)C4C[C@H](OC5OCC(O)C(O)C5O)[C@H]5C(C)(C)[C@@H](OC6OCC(O)C(O)C6OC6OCC(O)C(O)C6O)CC[C@@]56C[C@@]46CC[C@]23C)O1 (some centres undefined)	> 200 µM	> 200 µM	
CCCCI(O)OS(=O)(=O)c1ccc(C)cc1			inactive
COC(=O)c1ccc2cc(O)ccc2c1	> 200 µM	83.2 µM	
C/C=C/C(=O)[C@@H](O)C(C)(C)C			inactive
CN(C)c1ccc(/C=C(\C#N)C(=O)c2ccccc2)cc1Br	> 14.8 µM	> 14.8 µM	
CN(C)c1ccc(C=C(C(=O)O)C(=O)O)cc1	> 550 µM	> 550 µM	
CCOP(=O)(/C=C/c1cc(OC)ccc1OC)OCC	> 832 µM	355 µM and 158 µM	
CCOC(=O)[C@@]1(C(C)=O)CC(C)=C(C)C[S@]1=O	> 200 µM	> 200 µM	
CC(C)OP(=O)(OC(C)C)C(C(C)C)N(C)/C(F)=N/C(F)(F)F (centres undefined)	> 200 µM	> 200 µM	
CC(=O)Nc1ccc(-c2nnc(SCC(=O)Nc3ccc([N+](=O)[O-])cc3)o2)cc1	> 45.7 µM	7.94 µM	
CC1=CC(=O)/C(=C/n2c(=S)[nH]c3cc(C)ccc32)C(=O)O1	> 200 µM	195 µM	
Cc1ccc(S(=O)(=O)Nc2ccccc2C(C)(C)C)cc1			inactive
COC(=O)c1ccccc1/C=C1\Cc2cc(C)cc(C)c2C1=O			inactive
CC[C@@]12CCC(=O)N3CCC4(C(=C(C(=O)OC)C1)Nc1ccccc14)[C@H]32 (some centres undefined)	> 269 µM	15.5 µM	
COc1cc(-c2ccc(N=Nc3cc(S(=O)(=O)O)c4ccccc4c3O)c(OC)c2)ccc1N=Nc1cc(S(=O)(=O)O)c2ccccc2c1O	135 µM	141 µM	
CC(=O)CC(=O)CCCC(=O)Nc1ccc(Cl)cc1Cl			inactive
O=C(O)C1CCC(c2ccc(Cl)cc2Cl)=N1 (centres undefined)	> 200 µM	> 200 µM	

Structure (SMILES)	EC50	IC50	outcome
CC(C)(CN1CCCCC1)C(=O)/C=C/c1c(Cl)cccc1Cl	> 200 µM	1.86 µM	
O=c1c2cc(Br)ccc2nc(-c2ccccc2Cl)n1NCC1(O)OCC(O)C(O)C1O (centres undefined)			inactive
CSC1=C(C#N)C(=O)N(c2ccc(Cl)cc2)C(=O)C1C#N (centres undefined)	> 200 µM	135 µM	
Cc1c(Cl)cccc1NC(=O)CN(CC(C)C)CC(C)C	> 200 µM	33.1 µM	
COc1ccccc1N=Nc1c(-c2ccccc2)nn(C(=O)CC(=O)Nc2ccccc2Cl)c1-c1ccccc1	> 13.2 µM	> 13.2 µM	
CSc1s[s+]c(SC)c1-c1ccccc1	14.8 µM	16.2 µM	
CCCCCCCCCCCCOCCOCCOCCOCCOCCOCC(=O)NC(Cc1ccccc1)C(=O)Oc1ccc([N+](=O)[O-])cc1 (centres undefined)	> 200 µM	17.8 µM	
COc1ccc(/C=C\c2cc(OC)c(OC)c(OC)c2)cc1OC(=O)CCC(=O)O	> 0.2 µM	0.000562 µM	
CCOC(=O)C(NC(=O)CC(C)C)(Nc1ccc(S(=O)(=O)Nc2nc(C)cc(C)n2)cc1)C(F)(F)F (centres undefined)	> 200 µM	> 200 µM	
Cn1c(=O)nc2n(CCO)c(-c3ccccc3)c(-c3ccccc3)nc-2c1=O	> 200 µM	> 200 µM	
O=c1[nH]c(CCc2ccccc2)nc2ccccc12	> 7.94 µM	> 7.94 µM	
C=CC12CCC(CC1)n1c(=O)n(C)c(=O)n12	> 200 µM	> 200 µM	
N#CC(C#N)=Cc1ccc(C#N)cc1	> 141 µM	20.4 µM	
Cc1nn(C(=O)c2ccncc2)c2c1C(c1ccccc1)SC(N)=N2 (centres undefined)	28.2 µM	> 100 µM	
COC(=O)C1=C(C(=O)OC)P2(C)(C)OC(c3ccccc3)CN2C1(c1ccccc1)c1ccccc1 (centres undefined)	> 36.3 µM	4.79 µM	
Cc1nnc2c3nnc(C)n3c3ccccc3n12			inactive
COC(=O)N1[C@H]2Cc3c(OC)c(C)c(OC)c(OC)c3[C@@H]1/C(=C\c1cc(OC)c(OC)c(C)c1OC)N(Cc1ccccc1)C2=O			inactive
CCOC(=O)N/N=C(/N)c1cccc(Br)c1	> 200 µM	> 200 µM	
Nc1n[nH]c2c(C(=O)Nc3ccc(Cl)cc3)c(N)n(N)c(=O)c12	> 200 µM	> 200 µM	
Cc1cc(S(=O)(=O)Nc2nc3ccccc3[nH]2)c(S)cc1Cl	> 200 µM	55 µM	
CSc1nc(N)cc(C(F)(F)F)n1	> 200 µM	> 200 µM	
Cc1ccc(-c2c3nc(c(-c4ccc(C)cc4)c4ccc([nH]4)c(-c4ccc(OCC5COC(C)(C)O5)cc4)c4nc(c(-c5ccc(C)cc5)c5ccc2[nH]5)C=C4)C=C3)cc1 (centres undefined)	> 100 µM	> 100 µM	

Structure (SMILES)	EC50	IC50	outcome
CN(N=O)C(=O)N[C@@H](C=O)[C@@H](O)[C@H](O)[C@H](O)CO	> 933 µM	> 933 µM	
O=P(O)(OCC(O)O)OCC(O)O			inactive
COc1cc([C@@H]2C3C(=O)c4ccccc4C3[C@@H](c3cc(OC)c(OC)c(OC)c3)C23Cc2ccccc2C3=O)cc(OC)c1OC (some centres undefined)	> 200 µM	31.6 µM	
CC1=C(C(=O)CC(=O)C(=O)NC2C3CC4CC(C3)CC2C4)Sc2ccccc2N1 (centres undefined)	> 9.12 µM	> 9.12 µM	
C/C(=N\NC(N)=O)c1sc(-c2nc(C)c(/C(C)=N/NC(N)=O)s2)nc1C	> 9.55 µM	> 9.55 µM	
CCc1oc2ccc(OC)c3c2c1C=CC=C3			inactive
O=c1ccn(C2CC(CO)C(CO)C2)c(=O)[nH]1 (centres undefined)	> 105 µM	> 105 µM	
N#CCC(=O)N/N=C1/C(=O)NC(=O)C(=O)C1c1nc2ccccc2s1 (centres undefined)			inactive
CC(C)c1ccc(C2C3=C(N=C4SCC(=O)N42)C(=O)c2ccccc23)cc1 (centres undefined)	> 13.8 µM	> 13.8 µM	
COc1cccc(/C=N/[N-]C(N)=O)c1[O-].[OH3+].[Zn+2]	> 447 µM	132 µM	
Cc1ccc(S(=O)(=O)CNC(=O)C(O)(O)C(F)(F)F)cc1	> 200 µM	> 200 µM	
CC(C)(Oc1ccc(C2C[C@H]2Cl)cc1)C(=O)O (some centres undefined)	> 200 µM	> 200 µM	
CCC(C)(C(=O)O)C(=O)O	> 200 µM	> 200 µM	
COc1ccc(C(=O)O/N=C2\CCCC\C2=C/c2ccccc2)cc1			inactive
O=NN(CCCl)C(=O)/N=N/C(=O)N(CCCl)N=O	> 200 µM	15.1 µM	
CC(=Nc1ccccc1S)c1c(O)ccc2c(C)cc(=O)oc12	> 11.5 µM	> 11.5 µM	
OC(c1cc(C(O)(C(F)(F)F)C(F)(F)F)ncn1)(C(F)(F)F)C(F)(F)F	> 200 µM	166 µM	
N#Cc1c(-c2ccccc2)c(-c2ccccc2)nn(CC(=O)O)c1=O	> 759 µM	47.9 µM	
O=P(NC12CC3CC(CC(C3)C1)C2)(N1CC1)N1CC1			inactive
O=C(c1ccc(Cl)cc1)c1cnc2nc(-c3ccccc3)c(-c3ccccc3)nn12	> 1.78 µM	> 1.78 µM	
COC(=O)[C@@H]1C[C@@H](OS(=O)(=O)c2ccc(C)cc2)CN1C(=O)OCc1ccccc1			inactive
CCN(CC)C(C)C(=O)Nc1cccc(Cl)c1C (centres undefined)	> 50.1 µM	> 50.1 µM	

Structure (SMILES)	EC50	IC50	outcome
CCN(CC)CC(=O)Nc1cc(NC(=O)CN(CC)CC)c(C)c(NC(=O)CN(CC)CC)c1	> 200 µM	56.2 µM	
COc1cccc(C2c3cc4c(cc3OC(NNS(=O)(=O)c3ccc(C)cc3)C2C)OCO4)c1O (centres undefined)	> 200 µM	10.5 µM	
C/C(O)=C(/C=N\C(=S)Nc1ccc(Cl)c(Cl)c1)C(=O)Nc1ccccc1C	> 79.4 µM	40.7 µM	
O=C1C2C3CCC(C3)C2S(=O)(=O)C2C3CCC(C3)C12 (centres undefined)	> 200 µM	> 200 µM	
COC(=O)/C=C1\C(CO)OC(n2ccc(=O)[nH]c2=O)C1O (centres undefined)	> 200 µM	> 200 µM	
CCSc1nc(C)nc2c1sc1nc3ccccc3n12	> 100 µM	> 100 µM	
O=S1(=O)CCN(c2ccccc2CC(c2c[nH]c3ccccc23)c2c[nH]c3ccccc23)CC1	> 5.75 µM	> 5.75 µM	
O=c1[nH]cnc2c1ncn2Cc1ccccc1CCO	> 93.3 µM	> 93.3 µM	
CC(=O)OCC(C)C1=C(O)C(=O)C2(C)C/C=C(/C)CC/C=C(\C)CCC(O)C(C)CCC12 (centres undefined)	> 200 µM	11.5 µM	
CC(C(=O)Oc1ccc2ccccc2c1-c1c(O)ccc2ccccc12)c1ccccc1 (centres undefined)	> 2.51 µM	> 2.51 µM	
CCC(C)[C@H](NC(=O)C1CCCN1C[C@H](O)[C@H](Cc1ccccc1)NC(=O)[C@@H](CC(N)=O)NC(=O)OCc1ccccc1)C(=O)N[C@H](Cc1ccccc1)C(=O)NCCCC[C@@H]1NC(=O)[C@H](CC(C)C)N(C)C(=O)[C@H](C(C)C)NC(=O)[C@H](CC(C)C)N(C)C(=O)[C@@H](CO)N(C)C(=O)[C@H](CC)NC(=O)[C@H]([C@H](O)C(C)C)N(C)C(=O)[C@H](C(C)C)N(C)C(=O)[C@H](CC(C)C)N(C)C(=O)[C@H](CC(C)C)N(C)C(=O)[C@@H](C)NC1=O (some centres undefined)	0.501 µM	67.6 µM	
COc1cc(O)c2c(=O)c(OC)c(-c3ccc(OC)c(OC)c3)oc2c1			inactive
NC1=C(c2ccccc2)C(=O)c2ccccc21	> 61.7 µM	> 61.7 µM	
CCC(C)SSc1ccccc1C(=O)Nc1ccc(Cl)cc1 (centres undefined)	> 200 µM	0.776 µM	
CC1(Cl)C2c3ccccc3C(c3ccccc32)C1(C)Cl (centres undefined)	> 24 µM	> 24 µM	
Oc1ccc(O)c(-n2cccn2)c1	> 14.1 µM	7.24 µM	
N#C/C=C\c1ccc(F)cc1	> 245 µM	> 245 µM	
O=c1[nH]c(=O)n(C2OC(CO)CC2F)cc1Cl (centres undefined)	> 186 µM	> 186 µM	
O=C(/C(=N/Nc1ccc([N+](=O)[O-])cc1)c1ccccc1)c1ccccc1			inactive
CN=S(=O)(c1ccccc1)C1(C)CC(C)=C(C)CS1=O (centres undefined)	> 200 µM	132 µM	
